Literature values in US20140323580A1, “P[…] DOSAGE FORM” (Pharmacorp CC, priority 2009, published 2014).
Structures can show the parent of a compound that is named as a salt. Where two headings read alike, the source gives them in different places.

SMILES: CC(C)(N)Cc1ccccc1 [Phentermine, α,α-dimethyl phenethylamine (phenyl-tertiary-butylamine)]
- solubility in alcohol: soluble
- solubility in chloroform: soluble
- solubility in ether: soluble
- solubility in water: slightly soluble

SMILES: CC(C)(N)Cc1ccccc1 [phentermine HCl]
- solubility in alcohol (HCl): very soluble
- solubility in chloroform (HCl): very soluble
- solubility in ether (HCl): insoluble
- solubility in water (HCl): very soluble
